Our source for the IC50 values is US9321766B1, “Kinase inhibitors” (Allergan, Inc., priority 2014, dated 2016).

Assay [1] deals with PDGFRβ kinase (Homo sapiens (Human), UniProt P09619). Nature of the assay: PDGFRβ Kinase Assay (biochemical, poly-Glu-Tyr ELISA). The conditions noted are these: purified cytoplasmic domain PDGFR-b protein, 36 μM ATP. How it is done:
Biochemical PDGFR3 kinase assays were performed in 96 well microtiter plates that were coated overnight with 75 μg of poly-Glu-Tyr (4:1) in 10 mM Phosphate Buffered Saline (PBS), pH 7.4. The coated plates were washed with 2 mls per well PBS+0.05% Tween-20 (PBS-T), blocked by incubation with PBS containing 1% BSA, then washed with 2 mls per well PBS-T prior to starting the reaction. Reactions were carried out in 100 μL reaction volumes containing 36 μM ATP in kinase buffer (50 mM Hepes buffer pH 7.4, 20 mM MgCl2, 0.1 mM MnCl2 and 0.2 mM Na3VO4). Test compounds were reconstituted in 100% DMSO and added to the reaction to give a final DMSO concentration of 5%. Reactions were initiated by the addition 20 ul per well of kinase buffer containing 200-300 ng purified cytoplasmic domain PDGFR-b protein (Millipore). Following a 60 minute incubation at 30° C., the reactions were washed 2 mls per well PBS-T. 100 μl of a monoclonal anti-phosphotyrosine antibody-peroxidase conjugate diluted 1:10,000 in PBS-T was added to the wells for 30 minutes. Following a 2 mls per well wash with PBS-Tween-20, 100 μl of O-Phenylenediamine Dihydrochloride in phosphate-citrate buffer, containing urea hydrogen peroxide, was added to the wells for 7-10 minutes as a colorimetric substrate for the peroxidase. The reaction was terminated by the addition of 100 μl of 2.5N H2SO4 to each well and read using a microplate ELISA reader set at 492 nm. IC50 values for compound inhibition were calculated directly from graphs of optical density (arbitrary units) versus compound concentration following subtraction of blank values.
(ELISA stands for enzyme-linked immunosorbent assay.)

For assay [2], the target named is VEGFR2 (KDR) kinase (Homo sapiens (Human), UniProt P35968). Nature of the assay: VEGFR2 Kinase Assay (biochemical KDR kinase assay, poly-Glu-Tyr ELISA). The conditions noted are these: purified cytoplasmic domain KDR protein, 2.7 μM ATP. How it is done: VEGFR2 kinase potency of select analogs was determined by the following assay:
Biochemical KDR kinase assays were performed in 96 well microtiter plates that were coated overnight with 75 μg/well of poly-Glu-Tyr (4:1) in 10 mM Phosphate Buffered Saline (PBS), pH 7.4. The coated plates were washed with 2 mls per well PBS+0.05% Tween-20 (PBS-T), blocked by incubation with PBS containing 1% BSA, then washed with 2 mls per well PBS-T prior to starting the reaction. Reactions were carried out in 100 μL reaction volumes containing 2.7 μM ATP in kinase buffer (50 mM Hepes buffer pH 7.4, 20 mM MgCl2, 0.1 mM MnCl2 and 0.2 mM Na3VO4). Test compounds were reconstituted in 100% DMSO and added to the reaction to give a final DMSO concentration of 5%. Reactions were initiated by the addition 20 ul per well of kinase buffer containing 200-300 ng purified cytoplasmic domain KDR protein (BPS Bioscience, San Diego, Calif.). Following a 15 minute incubation at 30° C., the reactions were washed 2 mls per well PBS-T. 100 μl of a monoclonal anti-phosphotyrosine antibody-peroxidase conjugate diluted 1:10,000 in PBS-T was added to the wells for 30 minutes. Following a 2 mis per well wash with PBS-Tween-20, 100μl of O-Phenylenediamine Dihydrochloride in phosphate-citrate buffer, containing urea hydrogen peroxide, was added to the wells for 7-10 minutes as a colorimetric substrate for the peroxidase. The reaction was terminated by the addition of 100 μl of 2.5N H2SO4 to each well and read using a microplate ELISA reader set at 492 nm. IC50 values for compound inhibition were calculated directly from graphs of optical density (arbitrary units) versus compound concentration following subtraction of blank values.

Chain of VEGFR2 (KDR) kinase (P35968 786-1356, species assumed): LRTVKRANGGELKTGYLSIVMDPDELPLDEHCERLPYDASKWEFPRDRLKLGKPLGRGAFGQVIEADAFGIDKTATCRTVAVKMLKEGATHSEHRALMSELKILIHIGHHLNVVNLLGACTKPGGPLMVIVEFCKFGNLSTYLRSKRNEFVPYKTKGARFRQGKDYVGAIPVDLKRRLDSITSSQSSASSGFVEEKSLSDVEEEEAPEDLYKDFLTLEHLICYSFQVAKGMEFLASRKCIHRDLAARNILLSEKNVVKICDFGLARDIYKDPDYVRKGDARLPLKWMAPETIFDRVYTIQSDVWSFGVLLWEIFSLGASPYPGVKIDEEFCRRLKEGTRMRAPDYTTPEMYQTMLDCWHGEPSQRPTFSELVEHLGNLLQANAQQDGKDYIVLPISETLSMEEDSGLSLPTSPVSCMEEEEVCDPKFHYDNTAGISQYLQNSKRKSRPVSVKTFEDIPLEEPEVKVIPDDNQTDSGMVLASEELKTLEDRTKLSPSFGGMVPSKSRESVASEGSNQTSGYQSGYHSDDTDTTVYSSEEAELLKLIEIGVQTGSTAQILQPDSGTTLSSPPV
Chain of PDGFRβ kinase (P09619 554-1106): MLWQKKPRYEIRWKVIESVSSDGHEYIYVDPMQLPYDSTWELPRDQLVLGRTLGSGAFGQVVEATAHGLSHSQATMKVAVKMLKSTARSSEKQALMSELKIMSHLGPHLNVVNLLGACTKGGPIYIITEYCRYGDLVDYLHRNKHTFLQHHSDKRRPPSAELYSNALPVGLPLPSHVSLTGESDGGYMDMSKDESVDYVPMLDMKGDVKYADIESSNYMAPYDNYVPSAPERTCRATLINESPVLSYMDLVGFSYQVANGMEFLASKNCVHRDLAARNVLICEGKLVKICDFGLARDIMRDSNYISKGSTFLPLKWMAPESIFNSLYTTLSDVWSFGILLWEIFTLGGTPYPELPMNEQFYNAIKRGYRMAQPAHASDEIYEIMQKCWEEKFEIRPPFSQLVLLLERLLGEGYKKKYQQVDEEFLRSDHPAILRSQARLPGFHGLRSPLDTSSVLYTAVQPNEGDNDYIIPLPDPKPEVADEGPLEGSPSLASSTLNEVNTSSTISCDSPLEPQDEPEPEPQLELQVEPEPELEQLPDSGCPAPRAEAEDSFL

For `Cc1ccoc1C(=O)Nc1ccc(-n2ccc(C)c(N3CCc4nc(N)ncc4C3)c2=O)cc1` [Example 17, N-{4-[3-(2-amino-7,8-dihydropyrido[4,3-d]pyrimidin-6(5H)-yl)-4-methyl-2-oxopyridin-1(2H)-yl]phenyl}-3-methyl-2-furamide], the IC50 (in general, the concentration at which inhibition is half-maximal) in assay [1] was 0.033 µM; in assay [2], 0.029 µM.
For `CC(C)(C)c1ccc(-n2cccc(N3CCc4nc(N)ncc4C3)c2=O)cc1` [Example 2, 3-(2-amino-7,8-dihydropyrido[4,3-d]pyrimidin-6(5H)-yl)-1-(4-(tert-butyl)phenyl)pyridin-2(1H)-one], the results for the half-inhibitory concentration (IC50) in assay [1] and in assay [2] were 0.655 µM and 0.286 µM, respectively.
As for `Cc1cc[nH]c(=O)c1N1CCc2nc(N)ncc2C1` [Example 3, 3-(2-amino-7,8-dihydropyrido[4,3-d]pyrimidin-6(5H)-yl)-4-methylpyridin-2(1H)-one], the half-maximal inhibitory concentration (IC50) was 3.89 µM in assay [1] and more than 10 µM in assay [2].
`Cc1ccn(-c2cccc(N(C)C)c2)c(=O)c1N1CCc2nc(N)ncc2C1` [Example 14, 3-(2-amino-7,8-dihydropyrido[4,3-d]pyrimidin-6(5H)-yl)-1-[3-(dimethylamino)phenyl]-4-methylpyridin-2(1H)-one]: the IC50 was more than 1 µM in assay [1] and 0.327 µM in assay [2].
The matching figures for `Cc1ccn(-c2ccc(C(C)(C)C)cc2)c(=O)c1N1CCc2nc(N)ncc2C1` [Example 4, 3-(2-amino-7,8-dihydropyrido[4,3-d]pyrimidin-6(5H)-yl)-1-(4-tert-butylphenyl)-4-methylpyridin-2(1H)-one]: 0.381 µM and 0.086 µM.
